Results reported in patent US9079901B2, “Fused heterocyclic compounds as ion channel modulators” (Gilead Sciences, Inc., priority 2010, dated 2015).

Molecular target: wild-type human cardiac sodium channel, hNav1.5 (late sodium current) in HEK293 cells (Homo sapiens, UniProt Q14524)
Experiment: Late INa screening assay (automated whole-cell patch clamp, PatchXpress)
Format: cell-based
Details: HEK293, compound at 1 μM; late INa generated with 10 μM Tefluthrin (or 50 nM ATX II); HEK293 hNav1.5; read-out: Late INa 1 μM (percent block of late INa)
Outline: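 hNav1.5-expressing HEK293 cells (no β subunits) were recorded by automated whole-cell patch clamp at 24–27 °C with CsF-based internal solution. Late current was induced by 10 μM tefluthrin (or 50 nM ATX II) and evoked by 250 ms steps from −120 to −20 mV at 0.1 Hz. Compounds, typically 10 μM, were applied in three additions over 7–8 min; mean current at 225–250 ms, normalised to 0Na baseline, gave percent block.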

Chain of wild-type human cardiac sodium channel, hNav1.5 (late sodium current) in HEK293 cells (Q14524 whole entry): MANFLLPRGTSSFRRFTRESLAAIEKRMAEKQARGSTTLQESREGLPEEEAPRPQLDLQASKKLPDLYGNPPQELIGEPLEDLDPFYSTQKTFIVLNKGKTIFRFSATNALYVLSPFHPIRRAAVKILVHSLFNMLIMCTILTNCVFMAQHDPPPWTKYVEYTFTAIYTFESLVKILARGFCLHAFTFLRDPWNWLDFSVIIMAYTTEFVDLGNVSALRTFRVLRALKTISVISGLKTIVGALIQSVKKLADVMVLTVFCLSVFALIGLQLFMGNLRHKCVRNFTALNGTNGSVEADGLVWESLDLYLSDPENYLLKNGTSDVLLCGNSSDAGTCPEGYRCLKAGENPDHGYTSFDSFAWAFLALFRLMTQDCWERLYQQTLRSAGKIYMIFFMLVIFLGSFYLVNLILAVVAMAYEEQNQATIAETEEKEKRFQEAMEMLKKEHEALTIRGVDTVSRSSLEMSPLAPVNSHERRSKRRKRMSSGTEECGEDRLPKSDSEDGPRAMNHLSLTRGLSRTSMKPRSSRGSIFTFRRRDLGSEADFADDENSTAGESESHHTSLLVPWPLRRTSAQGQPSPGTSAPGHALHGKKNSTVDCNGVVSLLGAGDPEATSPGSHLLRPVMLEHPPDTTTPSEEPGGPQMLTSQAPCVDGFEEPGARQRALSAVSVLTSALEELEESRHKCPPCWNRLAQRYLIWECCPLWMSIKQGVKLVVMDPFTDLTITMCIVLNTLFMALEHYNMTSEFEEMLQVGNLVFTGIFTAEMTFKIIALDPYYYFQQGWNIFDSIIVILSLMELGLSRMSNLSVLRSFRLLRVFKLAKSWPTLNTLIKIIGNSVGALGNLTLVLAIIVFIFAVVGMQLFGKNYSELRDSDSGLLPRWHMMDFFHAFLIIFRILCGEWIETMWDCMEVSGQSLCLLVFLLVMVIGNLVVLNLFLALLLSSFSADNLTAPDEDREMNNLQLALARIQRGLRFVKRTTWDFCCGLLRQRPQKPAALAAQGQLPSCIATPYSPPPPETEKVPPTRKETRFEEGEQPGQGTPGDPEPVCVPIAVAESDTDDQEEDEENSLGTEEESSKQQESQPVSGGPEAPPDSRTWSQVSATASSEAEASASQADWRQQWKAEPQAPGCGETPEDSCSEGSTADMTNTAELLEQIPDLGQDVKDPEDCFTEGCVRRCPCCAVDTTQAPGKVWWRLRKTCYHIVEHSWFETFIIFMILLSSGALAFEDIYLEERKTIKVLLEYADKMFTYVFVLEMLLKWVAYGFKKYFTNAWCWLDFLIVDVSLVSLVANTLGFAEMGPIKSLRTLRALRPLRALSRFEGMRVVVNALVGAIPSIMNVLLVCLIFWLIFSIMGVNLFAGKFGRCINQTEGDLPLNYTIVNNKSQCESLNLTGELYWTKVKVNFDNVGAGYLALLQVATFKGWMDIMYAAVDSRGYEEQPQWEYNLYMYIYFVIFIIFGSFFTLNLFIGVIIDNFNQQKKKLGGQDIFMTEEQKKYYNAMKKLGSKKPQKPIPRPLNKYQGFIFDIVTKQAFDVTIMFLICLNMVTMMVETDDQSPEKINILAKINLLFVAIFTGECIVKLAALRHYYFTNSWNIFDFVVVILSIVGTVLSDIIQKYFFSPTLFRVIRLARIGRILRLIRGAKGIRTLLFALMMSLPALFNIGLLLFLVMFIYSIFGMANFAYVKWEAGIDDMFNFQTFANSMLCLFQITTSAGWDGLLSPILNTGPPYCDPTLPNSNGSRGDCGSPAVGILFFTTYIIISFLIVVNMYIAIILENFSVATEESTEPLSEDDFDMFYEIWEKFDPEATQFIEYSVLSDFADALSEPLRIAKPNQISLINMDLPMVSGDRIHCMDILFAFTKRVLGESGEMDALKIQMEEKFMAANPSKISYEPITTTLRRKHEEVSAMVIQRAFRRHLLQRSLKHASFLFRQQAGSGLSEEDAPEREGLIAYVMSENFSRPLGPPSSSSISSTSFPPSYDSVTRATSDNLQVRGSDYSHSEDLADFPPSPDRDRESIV

Structure (SMILES)	inhibition at 1 µM [%]
O=c1n(CCOc2nccc(C3CC3)n2)nc2ccc(-c3ccc(OC(F)(F)F)cc3)cn12 [compound 90, 2-(2-(4-cyclopropylpyrimidin-2-yloxy)ethyl)-6-(4-(trifluoromethoxy)phenyl)-[1,2,4]triazolo[4,3-a]pyridin-3(2H)-one]	36.3
O=c1n(CC(F)(F)F)nc2ccc(-c3ccc(OC(F)(F)F)cc3)cn12 [compound 189, 2-(2,2,2-trifluoroethyl)-6-(4-(trifluoromethoxy)phenyl)-[1,2,4]triazolo[4,3-a]pyridin-3(2H)-one]	15.3
Cc1cccnc1CCn1nc2ccc(-c3ccc(OC(F)(F)F)cc3)cn2c1=O [compound 61, 2-(2-(3-methylpyridin-2-yl)ethyl)-6-(4-(trifluoromethoxy)phenyl)-[1,2,4]triazolo[4,3-a]pyridin-3(2H)-one]	41.5
O=c1n(CCOc2nccc(OCC(F)(F)F)n2)nc2ccc(-c3ccc(OC(F)(F)F)cc3)cn12 [compound 178, 2-(2-(4-(2,2,2-trifluoroethoxy)pyrimidin-2-yloxy)ethyl)-6-(4-(trifluoromethoxy)phenyl)-[1,2,4]triazolo[4,3-a]pyridin-3(2H)-one]	14.2
O=c1n(Cc2noc(CCl)n2)nc2ccc(-c3ccc(OC(F)(F)F)cc3)cn12 [compound 157, 2-((5-(chloromethyl)-1,2,4-oxadiazol-3-yl)methyl)-6-(4-(trifluoromethoxy)phenyl)-[1,2,4]triazolo[4,3-a]pyridin-3(2H)-one]	22.7
Cc1cc(-c2ccc(OC(F)(F)F)cc2)cn2c(=O)[nH]nc12 [compound 196, 8-methyl-6-(4-(trifluoromethoxy)phenyl)-[1,2,4]triazolo[4,3-a]pyridin-3(2H)-one]	38.3
COCc1nc(Cn2nc3ccc(-c4ccc(OC(F)(F)F)cc4)cn3c2=O)no1 [compound 128, 2-((5-(methoxymethyl)-1,2,4-oxadiazol-3-yl)methyl)-6-(4-(trifluoromethoxy)phenyl)-[1,2,4]triazolo[4,3-a]pyridin-3(2H)-one]	22
Cc1noc(C(C)n2nc3ccc(-c4ccc(OC(F)(F)F)cc4)cn3c2=O)n1 (centres unmarked) [compound 147, 2-(1-(3-methyl-1,2,4-oxadiazol-5-yl)ethyl)-6-(4-(trifluoromethoxy)phenyl)-[1,2,4]triazolo[4,3-a]pyridin-3(2H)-one]	13.4
CC(C)Oc1ccccc1OCC(O)Cn1nc2ccc(-c3ccc(OC(F)(F)F)cc3)cn2c1=O (centres unmarked) [compound 108, 2-(2-hydroxy-3-(2-isopropoxyphenoxy)propyl)-6-(4-(trifluoromethoxy)phenyl)-[1,2,4]triazolo[4,3-a]pyridin-3(2H)-one]	41.5
O=c1n(CCOc2nccc(OCCO)n2)nc2ccc(-c3ccc(OC(F)(F)F)cc3)cn12 [compound 156, 2-(2-(4-(2-hydroxyethoxy)pyrimidin-2-yloxy)ethyl)-6-(4-(trifluoromethoxy)phenyl)-[1,2,4]triazolo[4,3-a]pyridin-3(2H)-one]	6.62
COc1c(-c2ccc(OC(F)(F)F)cc2)ccc2nn(Cc3nc(C)no3)c(=O)n12 [compound 30, 5-methoxy-2-((3-methyl-1,2,4-oxadiazol-5-yl)methyl)-6-(4-(trifluoromethoxy)phenyl)-[1,2,4]triazolo[4,3-a]pyridin-3(2H)-one]	18.2
O=c1n(CCOc2ncc(C(F)(F)F)cn2)nc2ccc(-c3ccc(OC(F)(F)F)cc3)cn12 [compound 180, 6-(4-(trifluoromethoxy)phenyl)-2-(2-(5-(trifluoromethyl)pyrimidin-2-yloxy)ethyl)-[1,2,4]triazolo[4,3-a]pyridin-3(2H)-one]	22.6
Cc1ccn(CCn2nc3ccc(-c4ccc(OC(F)(F)F)cc4)cn3c2=O)n1 [compound 42, 2-(2-(3-methyl-1H-pyrazol-1-yl)ethyl)-6-(4-(trifluoromethoxy)phenyl)-[1,2,4]triazolo[4,3-a]pyridin-3(2H)-one]	18.9
CCc1noc(Cn2nc3ccc(-c4ccc(OC(F)(F)F)cc4)cn3c2=O)n1 [compound 166, 2-((3-ethyl-1,2,4-oxadiazol-5-yl)methyl)-6-(4-(trifluoromethoxy)phenyl)-[1,2,4]triazolo[4,3-a]pyridin-3(2H)-one]	24.4
O=c1n(Cc2nonc2-c2ccccc2)nc2ccc(-c3ccc(OC(F)(F)F)cc3)cn12 [compound 17, 2-((4-phenyl-1,2,5-oxadiazol-3-yl)methyl)-6-(4-(trifluoromethoxy)phenyl)-[1,2,4]triazolo[4,3-a]pyridin-3(2H)-one]	18.4
COc1cnc(OCCn2nc3ccc(-c4ccc(OC(F)(F)F)cc4)cn3c2=O)nc1 [compound 116, 2-(2-(5-methoxypyrimidin-2-yloxy)ethyl)-6-(4-(trifluoromethoxy)phenyl)-[1,2,4]triazolo[4,3-a]pyridin-3(2H)-one]	31.3

Structure (SMILES)	inhibition at 1 µM [%]
O=c1n(CCCOc2ccccc2Cl)nc2ccc(-c3ccc(OC(F)(F)F)cc3)cn12 [compound 52, 2-(3-(2-chlorophenoxy)propyl)-6-(4-(trifluoromethoxy)phenyl)-[1,2,4]triazolo[4,3-a]pyridin-3(2H)-one]	33.3
O=c1n(Cc2nc(C3CC3)co2)nc2ccc(-c3ccc(C(F)(F)F)cc3)cn12 [compound 194, 2-((4-cyclopropyloxazol-2-yl)methyl)-6-(4-(trifluoromethyl)phenyl)-[1,2,4]triazolo[4,3-a]pyridin-3(2H)-one]	21.6
CCOc1ccnc(OC2COCC2n2nc3ccc(-c4ccc(OC(F)(F)F)cc4)cn3c2=O)n1 (centres unmarked) [compound 125, 2-(4-(4-ethoxypyrimidin-2-yloxy)tetrahydrofuran-3-yl)-6-(4-(trifluoromethoxy)phenyl)-[1,2,4]triazolo[4,3-a]pyridin-3(2H)-one]	14.1
O=c1n(Cc2ncc(C3CC3)o2)nc2ccc(-c3ccc(OC(F)(F)F)cc3)cn12 [compound 199, 2-((5-cyclopropyloxazol-2-yl)methyl)-6-(4-(trifluoromethoxy)phenyl)-[1,2,4]triazolo[4,3-a]pyridin-3(2H)-one]	22.5
Cc1coc(Cn2nc3ccc(-c4ccc(C(F)(F)F)cc4)cn3c2=O)n1 [compound 192, 2-((4-methyloxazol-2-yl)methyl)-6-(4-(trifluoromethyl)phenyl)-[1,2,4]triazolo[4,3-a]pyridin-3(2H)-one]	34.4
COc1cc(F)ccc1OCCCn1nc2ccc(-c3ccc(OC(F)(F)F)cc3)cn2c1=O [compound 67, 2-(3-(4-fluoro-2-methoxyphenoxy)propyl)-6-(4-(trifluoromethoxy)phenyl)-[1,2,4]triazolo[4,3-a]pyridin-3(2H)-one]	19.2
CC1(C)OC[C@H](c2nc(Cn3nc4ccc(-c5ccc(OC(F)(F)F)cc5)cn4c3=O)no2)O1 [compound 158, (R)-2-((5-(2,2-dimethyl-1,3-dioxolan-4-yl)-1,2,4-oxadiazol-3-yl)methyl)-6-(4-(trifluoromethoxy)phenyl)-[1,2,4]triazolo[4,3-a]pyridin-3(2H)-one]	25.3
O=c1n(Cc2nc3ccccc3s2)nc2ccc(-c3ccc(OC(F)(F)F)cc3)cn12 [compound 20, 2-(benzo[d]thiazol-2-ylmethyl)-6-(4-(trifluoromethoxy)phenyl)-[1,2,4]triazolo[4,3-a]pyridin-3(2H)-one]	17.4
Cc1noc(Cn2nc3ccc(-c4ccc([Si](C)(C)C)cc4)cn3c2=O)n1 [compound 110, 2-((3-methyl-1,2,4-oxadiazol-5-yl)methyl)-6-(4-(trimethylsilyl)phenyl)-[1,2,4]triazolo[4,3-a]pyridin-3(2H)-one]	44.3
O=c1n(Cc2nc(Cc3ccccc3)no2)nc2ccc(-c3ccc(OC(F)(F)F)cc3)cn12 [compound 29, 2-((3-benzyl-1,2,4-oxadiazol-5-yl)methyl)-6-(4-(trifluoromethoxy)phenyl)-[1,2,4]triazolo[4,3-a]pyridin-3(2H)-one]	27.2
O=c1n(CCOc2ncc(Cl)cn2)nc2ccc(-c3ccc(OC(F)(F)F)cc3)cn12 [compound 92, 2-(2-(5-chloropyrimidin-2-yloxy)ethyl)-6-(4-(trifluoromethoxy)phenyl)-[1,2,4]triazolo[4,3-a]pyridin-3(2H)-one]	35.3
COc1cc(Cl)c(Cl)cc1OCC(O)Cn1nc2ccc(-c3ccc(C(F)(F)F)cc3)cn2c1=O (centres unmarked) [compound 198, 2-(3-(4,5-dichloro-2-methoxyphenoxy)-2-hydroxypropyl)-6-(4-(trifluoromethyl)phenyl)-[1,2,4]triazolo[4,3-a]pyridin-3(2H)-one]	14.8
Cc1nc(Cn2nc3ccc(-c4ccc(OC(F)(F)F)cc4)cn3c2=O)no1 [compound 3, 2-((5-methyl-1,2,4-oxadiazol-3-yl)methyl)-6-(4-(trifluoromethoxy)phenyl)-[1,2,4]triazolo[4,3-a]pyridin-3(2H)-one]	29.3
O=c1n(Cc2coc(C3CC3)n2)nc2ccc(-c3ccc(OC(F)(F)F)cc3)cn12 [compound 181, 2-((2-cyclopropyloxazol-4-yl)methyl)-6-(4-(trifluoromethoxy)phenyl)-[1,2,4]triazolo[4,3-a]pyridin-3(2H)-one]	23.9
O=c1n(CCCOc2cnccn2)nc2ccc(-c3ccc(OC(F)(F)F)cc3)cn12 [compound 85, 2-(3-(pyrazin-2-yloxy)propyl)-6-(4-(trifluoromethoxy)phenyl)-[1,2,4]triazolo[4,3-a]pyridin-3(2H)-one]	12.2
CCOC(COc1ccc2nc(C)sc2c1)Cn1nc2ccc(-c3ccc(OC(F)(F)F)cc3)cn2c1=O (centres unmarked) [compound 124, 2-(2-ethoxy-3-(2-methylbenzo[d]thiazol-6-yloxy)propyl)-6-(4-(trifluoromethoxy)phenyl)-[1,2,4]triazolo[4,3-a]pyridin-3(2H)-one]	31.2
